Results as given in patent publication US20090247465A1, “Novel Use of Bivalirudin in the Treatment of Acute Coronary Syndrome” (priority 2008, published 2009).

Tests used:
[1] = tested on: patients with moderate and high risk NSTE-ACS; conditions: ACUITY; bivalirudin monotherapy vs UFH/enoxaparin plus a GP IIb/IIIa inhibitor; cited from earlier work
[2] = in vivo; cited from earlier work
[3] = tested on: patients with moderate and high risk NSTE-ACS; test: ACUITY analysis: clinical outcomes at 30 days, consistent UFH/enoxaparin plus GP IIb/IIIa inhibitor vs switch to bivalirudin, and antithrombin-naïve patients; conditions: human, in vivo
From the text: A total of 4215 patients received prior antithrombin therapy with either UFH or enoxaparin before randomization. Of these, 2137 were randomized to receive the same antithrombin plus a GP IIb/IIIa inhibitor (consistent), while 2078 patients were randomized to receive bivalirudin (switch). There were 2889 patients naïve to antithrombin therapy at randomization, and of these, 1462 patients were randomized to UFH/enoxaparin plus a GP IIb/IIIa inhibitor and 1427 to bivalirudin monotherapy (FIG. 1).
At 30 days, there was no difference in composite ischemia between the two groups: 6.9% for patients switched to bivalirudin vs. 7.4% for patients remaining on consistent UFH/enoxaparin ([RR 0.93; 0.75-1.16], p=0.52). […] Transfusions were also lower in the patients switched to bivalirudin vs. patients remaining on consistent UFH/enoxaparin (1.5% vs. 2.6% [RR 0.60; 0.39-0.92], p=0.02). (Table 2, FIG. 2).
Tables 3a and 3b show clinical outcomes according to type of heparin therapy (UFH or enoxaparin) in patients on prior antithrombin therapy and in patients naive to antithrombin therapy. […]

Compound: CC[C@H](C)[C@H](NC(=O)[C@H](CCC(=O)O)NC(=O)[C@H](CCC(=O)O)NC(=O)[C@H](Cc1ccccc1)NC(=O)[C@H](CC(=O)O)NC(=O)CNC(=O)[C@H](CC(N)=O)NC(=O)CNC(=O)CNC(=O)CNC(=O)CNC(=O)[C@@H]1CCCN1C(=O)[C@H](CCCNC(=N)N)NC(=O)[C@@H]1CCCN1C(=O)[C@H](N)Cc1ccccc1)C(=O)N1CCC[C@H]1C(=O)N[C@@H](CCC(=O)O)C(=O)N[C@@H](CCC(=O)O)C(=O)N[C@@H](Cc1ccc(O)cc1)C(=O)N[C@@H](CC(C)C)C(=O)O [Bivalirudin, bivalirudin]
- absolute reduction in major bleeding [1]: 2.7%
- relative reduction in major bleeding [1]: 47%
- doses not causing adverse effects [2]: up to 7.5 mg/kg

Compound: enoxaparin
- Major bleeding, number of patients [3]: 42
- Transfusion, number of patients [3]: 19
